For test [1], the system named is KRas-mediated phosphorylation of ERK in A549 cells. The test is described as follows: Inhibition of KRas-mediated phosphorylation of ERK (Cisbio HTRF pERK), A549 cells. The note with it: Homo sapiens; for IC50: HTRF pERK. It counts as cell-based. In a few lines: (§1)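 HTRF readout of phospho-ERK in cell lysates after 3 hrs of compound exposure. Dosing: 10 uM top, 3-fold steps, 10 doses, final DMSO 0.8%. Min control: 0.2 uM Trametinib. Lysis ran 40 mins at 4° C, and antibody detection 2 hrs at room temperature.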
In general terms: Time-resolved FRET reads energy transfer from a long-lived donor to a nearby acceptor.

Test [2] deals with KRas-mediated phosphorylation of ERK in H358 cells. The test is described as follows: Inhibition of KRas-mediated phosphorylation of ERK (Cisbio HTRF pERK), H358 cells. It counts as cell-based. Particulars: Homo sapiens; for IC50: NCI-H358, HTRF pERK. In a few lines:
(§2)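 Following a 3-hr exposure of cells to serially diluted compound (from 10 uM, 3-fold, 10 doses), cold lysis for 40 mins preceded a 2-hr room-temperature HTRF immunoassay for phosphorylated ERK.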

The test system of test [3] is KRas-mediated phosphorylation of ERK in AsPC-1 cells. The test is described as follows: Inhibition of KRas-mediated phosphorylation of ERK (Cisbio HTRF pERK), AsPC-1 cells. In kind it is cell-based. The note with it: Homo sapiens; for IC50: ASPC1, AsPC-1 cells, HTRF pERK. In a few lines: as §2
Test [4] relates to KRas-mediated phosphorylation of ERK in H460 cells. The test is described as follows: Inhibition of KRas-mediated phosphorylation of ERK (Cisbio HTRF pERK), H460 cells. It counts as cell-based. The note with it: Homo sapiens; for IC50: NCI-H460, HTRF pERK. In a few lines: as §2
For test [5], the system named is KRas-mediated phosphorylation of ERK in HCT116 cells. The test is described as follows: Inhibition of KRas-mediated phosphorylation of ERK (Cisbio HTRF pERK), HCT116 cells. It counts as cell-based. The note with it: Homo sapiens; for IC50: HCT-116, HTRF pERK. In a few lines:
as §1

The test system of test [6] is KRas-mediated phosphorylation of ERK in MKN1 cells. Nature of the test: Inhibition of KRas-mediated phosphorylation of ERK (Cisbio HTRF pERK), MKN1 cells. It counts as cell-based. Particulars: Homo sapiens, MKN-1. In a few lines:
(§3)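 Phospho-ERK is quantified by HTRF with the Advanced pERK kit. Cells go in at 6,000/well in RPMI plus 10% FBS overnight at 37° C. under 5% CO2, with a 4-hour covered room-temperature incubation ahead of the read.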

The test system of test [7] is KRas-mediated phosphorylation of ERK in H727 cells. The test is described as follows: Inhibition of KRas-mediated phosphorylation of ERK (Cisbio HTRF pERK), H727 cells. In kind it is cell-based. The note with it: Homo sapiens; for IC50: NCI-H727, H727 cells, HTRF pERK. In a few lines:
as §2

Test [8] has as its target T1, KRas^G12V (Homo sapiens, UniProt P01116, G12V).
T1 construct: Biotinylated KRas (corresponding to amino acids 1-169, produced at Accelegan Inc.); biotin (biotinylated); purchased Accelegan Inc
The test is described as follows: KRas binding assay (TR-FRET tracer displacement), KRas G12V.

Test [9] concerns KRas-mediated phosphorylation of ERK in PSN1 cells. Nature of the test: Inhibition of KRas-mediated phosphorylation of ERK (Cisbio HTRF pERK), PSN1 cells. It counts as cell-based. Particulars: Homo sapiens. In a few lines:
as §3

The target of test [10] is T2, KRas^G12D (Homo sapiens, UniProt P01116, G12D).
T2 construct: Biotinylated KRas (corresponding to amino acids 1-169, produced at Accelegan Inc.); biotin (biotinylated); purchased Accelegan Inc
The test is described as follows: KRas binding assay (TR-FRET tracer displacement), KRas G12D.

Test [11] concerns the target T3, KRas^G12R (Homo sapiens, UniProt P01116, G12R).
T3 construct: Biotinylated KRas (corresponding to amino acids 1-169, produced at Accelegan Inc.); biotin (biotinylated); purchased Accelegan Inc
The test is described as follows: KRas binding assay (TR-FRET tracer displacement), KRas G12R.

Some results are limits rather than exact numbers.

T3 sequence (P01116 1-169 isoform P01116-2 G12R): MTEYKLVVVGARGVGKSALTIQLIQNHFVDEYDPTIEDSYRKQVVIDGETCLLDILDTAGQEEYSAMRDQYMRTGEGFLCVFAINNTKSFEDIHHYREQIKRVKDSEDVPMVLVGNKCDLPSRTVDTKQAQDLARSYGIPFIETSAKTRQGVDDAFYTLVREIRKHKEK
T2 sequence (P01116 1-169 isoform P01116-2 G12D): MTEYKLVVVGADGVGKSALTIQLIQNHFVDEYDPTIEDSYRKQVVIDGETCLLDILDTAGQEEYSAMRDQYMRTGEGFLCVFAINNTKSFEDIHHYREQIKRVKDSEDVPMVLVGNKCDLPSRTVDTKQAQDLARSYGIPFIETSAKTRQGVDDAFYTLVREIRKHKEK
T1 sequence (P01116 1-169 isoform P01116-2 G12V): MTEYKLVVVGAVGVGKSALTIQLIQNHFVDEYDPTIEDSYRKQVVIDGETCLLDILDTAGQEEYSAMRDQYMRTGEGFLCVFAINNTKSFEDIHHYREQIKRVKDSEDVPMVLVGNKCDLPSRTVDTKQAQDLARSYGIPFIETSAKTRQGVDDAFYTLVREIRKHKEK

A word on the IC50: it is the midpoint of a concentration-inhibition curve. A higher IC50 goes with weaker potency. In the case of `CCc1c(F)ccc2cc(O)cc(-c3ncc4c(N5CC6CCC(C5)C6C(=O)NC)nc(OC[C@@]56CCCN5C[C@H](F)C6)nc4c3F)c12` (stereo partly drawn) [Example 850, (1R,5S,8S)-3-(7-(8-ethyl-7-fluoro-3-hydroxynaphthalen-1-yl)-8-fluoro-2-(((2R,7aS)-2-fluorotetrahydro-1H-pyrrolizin-7a(5H)-yl)methoxy)pyrido[4,3-d]pyrimidin-4-yl)-N-methyl-3-azabicyclo[3.2.1]octane-8-carboxamide], the IC50 is 862 nM in test [1]; 150 nM in test [2]; 1450 nM in test [3]; 83 nM in [4]; 171 nM in [5]; 4 nM in [6]. For the same compound, the IC50 in test [7] is 2280 nM; in [8], 8 nM; in [9], over 10000 nM; in test [10], 6 nM; in test [11], 10 nM.

For `CCc1c(F)ccc2cc(O)cc(-c3ncc4c(N5CCC[C@@](C)(O)C5)nc(OC[C@@]56CCCN5[C@H](COC(C)C)CC6)nc4c3F)c12` [Example 895, (R)-1-(7-(8-ethyl-7-fluoro-3-hydroxynaphthalen-1-yl)-8-fluoro-2-(((3S,7aS)-3-(isopropoxymethyl)tetrahydro-1H-pyrrolizin-7a(5H)-yl)methoxy)pyrido[4,3-d]pyrimidin-4-yl)-3-methylpiperidin-3-ol], the IC50 was 73 nM in [1]; 11 nM in test [2]; 27 nM in test [3]; 42 nM in test [4]; 79 nM in test [5]; 11 nM in test [6]. The IC50 in test [7] was 119 nM; in [8], under 2 nM; in [9], 905 nM; in test [10], under 2 nM; in test [11], under 2 nM.

With `CCc1c(F)ccc2cc(O)cc(-c3ncc4c(N5CCC[C@@](C)(O)C5)nc(OC[C@]56CCCN5[C@@H](COC)CC6)nc4c3F)c12` [Example 877, (R)-1-(7-(8-ethyl-7-fluoro-3-hydroxynaphthalen-1-yl)-8-fluoro-2-(((3R,7aR)-3-(methoxymethyl)tetrahydro-1H-pyrrolizin-7a(5H)-yl)methoxy)pyrido[4,3-d]pyrimidin-4-yl)-3-methylpiperidin-3-ol], the IC50 in test [1] came to 92 nM; in test [2] it was 40 nM; in test [3], 79 nM; in test [4], 86 nM; in [5] it was 176 nM; in test [6], 104 nM. Further, the IC50 in test [7] was found to be 189 nM; in [8], 3 nM; in test [9], 2150 nM; in test [10] it was 3 nM; in [11] it was 5 nM.

Take `CCc1c(F)ccc2cc(O)cc(-c3ncc4c(N5CC6CCC(C5)C6(O)C(F)(F)F)nc(OC[C@@]56CCCN5C[C@H](F)C6)nc4c3F)c12` (stereo partly drawn) [Example 843, (1R,5S,8R)-3-(7-(8-ethyl-7-fluoro-3-hydroxynaphthalen-1-yl)-8-fluoro-2-(((2R,7aS)-2-fluorotetrahydro-1H-pyrrolizin-7a(5H)-yl)methoxy)pyrido[4,3-d]pyrimidin-4-yl)-8-(trifluoromethyl)-3-azabicyclo[3.2.1]octan-8-ol]: the IC50 in test [1] amounted to 2510 nM; in test [2] it was 478 nM; in test [3], 6230 nM; in test [4], 162 nM; in test [5], 305 nM; in [6], 55 nM. The IC50 in test [7] is 5300 nM; in [8] it was 79 nM; in [9] it was over 10000 nM; in test [10] it was 265 nM; in test [11] it was 26 nM.

For the compound `CCCCN(C)C(=O)OC[C@@H]1CC[C@@]2(COc3nc(N4CCC[C@@](C)(O)C4)c4cnc(-c5cc(O)cc6ccc(F)c(CC)c56)c(F)c4n3)CCCN12` [Example 874, ((3S,7aR)-7a-(((7-(8-ethyl-7-fluoro-3-hydroxynaphthalen-1-yl)-8-fluoro-4-((R)-3-hydroxy-3-methylpiperidin-1-yl)pyrido[4,3-d]pyrimidin-2-yl)oxy)methyl)hexahydro-1H-pyrrolizin-3-yl)methyl butyl(methyl)carbamate], the IC50 in test [1] was determined as 22 nM; in test [2], 16 nM; in test [3] it was 12 nM; in [4], 21 nM; in [5], 48 nM; in test [6] it was 22 nM. In addition, the IC50 in test [7] was 81 nM; in test [8] it was 2 nM; in test [9], 2070 nM; in test [10] it was under 2 nM; in test [11] it was 3 nM.

What is called inhibition is the relative decrease from the control value, in per cent. As for `CCc1c(F)ccc2cc(O)cc(-c3ncc4c(N5CCC[C@@](C)(O)C5)nc(OC[C@@]56CCCN5[C@H](CNS(=O)(=O)N(C)C)CC6)nc4c3F)c12` [Example 789, (R)-1-(7-(8-ethyl-7-fluoro-3-hydroxynaphthalen-1-yl)-8-fluoro-2-(((3S,7aS)-3-(((dimethylsulfamoyl)amino)methyl)tetrahydro-1H-pyrrolizin-7a(5H)-yl)methoxy)pyrido[4,3-d]pyrimidin-4-yl)-3-methylpiperidin-3-ol], the inhibition at 0.1 µM in test [1] (A549, 3 h, single point, 100 nM compound, 3 hrs) is 57%; in test [2] (NCI-H358, 3 h, single point, 100 nM compound, 3 hrs), 97%; in [3] (ASPC1, 3 h, single point, 100 nM compound, 3 hrs, AsPC-1 cells), 77%; in test [4] (NCI-H460, 3 h, single point, 100 nM compound, 3 hrs), 76%; in [5] (HCT-116, 3 h, single point, 100 nM compound, 3 hrs) it was 55%; in test [7] (NCI-H727, 3 h, single point, 100 nM compound, 3 hrs, H727 cells), 43%. Further, the IC50 was 32 nM in test [3]; 6 nM in [6]; 116 nM in test [7]; under 2 nM in test [8]; 1750 nM in test [9]; under 2 nM in test [10]. In test [11], this compound showed an IC50 of under 2 nM.

As for `CCc1c(F)ccc2cc(O)cc(-c3ncc4c(N5CC6CCC(C5)C6(F)F)nc(OC[C@@]56CCCN5C[C@H](F)C6)nc4c3F)c12` [Example 869, 4-(4-(8,8-difluoro-3-azabicyclo[3.2.1]octan-3-yl)-8-fluoro-2-(((2R,7aS)-2-fluorotetrahydro-1H-pyrrolizin-7a(5H)-yl)methoxy)pyrido[4,3-d]pyrimidin-7-yl)-5-ethyl-6-fluoronaphthalen-2-ol], the IC50 in [1] was determined as 2760 nM; in test [2], 922 nM; in [3] it was 3600 nM; in test [4], 271 nM; in test [5] it was 1200 nM; in test [6], 290 nM. In addition, the IC50 is 4520 nM in [7]; 116 nM in [8]; over 10000 nM in test [9]; 210 nM in [10]; 26 nM in [11].

Take `CCOC[C@@H]1CC[C@]2(COc3nc(N4CCC[C@@](C)(O)C4)c4cnc(-c5cc(O)cc6ccc(F)c(CC)c56)c(F)c4n3)CCCN12` [Example 853, (R)-1-(2-(((3S,7aS)-3-(ethoxymethyl)tetrahydro-1H-pyrrolizin-7a(5H)-yl)methoxy)-7-(8-ethyl-7-fluoro-3-hydroxynaphthalen-1-yl)-8-fluoropyrido[4,3-d]pyrimidin-4-yl)-3-methylpiperidin-3-ol]: the IC50 in [1] came to 39 nM; in test [2] it was 10 nM; in test [3], 33 nM; in [4], 23 nM; in test [5] it was 36 nM; in test [6], 1 nM. The IC50 is 67 nM in test [7]; under 2 nM in test [8]; 1070 nM in [9]; under 2 nM in test [10]; under 2 nM in test [11].

For the origin of these results see patent US20260015350A1, “AZAQUINAZOLINE PAN-KRAS INHIBITORS” (Mirati Therapeutics, Inc., priority 2022, published 2026).
